Here are results for three molecules from article PMC3302783, “Position of the Third Na^+ Site in the Aspartate Transporter GltPh and the Human Glutamate Transporter, EAAT1” (PLoS ONE, 2012).

A value given as a limit tells only on which side of the number the result lay.

One assay addresses T1, EAAT1 T131A (Homo sapiens, UniProt P43003, T131A).
T1 construct: expressed in transfected cells; host or cells: Xenopus laevis oocytes injected with cRNA
In words: Two-electrode voltage clamp of Xenopus laevis oocytes expressing EAAT1 T131A. It counts as cell-based. The source says: (§1) All chemicals were obtained from Sigma unless otherwise stated. Stage V oocytes were harvested from Xenopus laevis as described previously.
(§2) NMDG^+ was used as a Na^+ substitute to maintain ionic strength of the buffers.
(§3) Substrate responses were fitted by least squares as a function of substrate concentration to I/Imax = [S]/([S]+K 0.5), where I is the current, Imax is the maximal current, K 0.5 is the concentration of substrate that generates half-maximal response, and [S] is the substrate concentration. Na^+ concentration responses were fit to the Hill equation I/Imax = [S]^n/([S]^n+(K 0.5)^n) where n is the Hill coefficient and all other terms are as described above. For ^3H-L-aspartate uptake by GltPh, initial rates were calculated from the linear portion of the curve and all data represent the mean ± s.e.m. of at least 3 experiments.

The next assay concerns the target T2, EAAT1 (Homo sapiens, UniProt P43003).
T2 construct: expressed in transfected cells; host or cells: Xenopus laevis oocytes injected with cRNA
Briefly: Two-electrode voltage clamp of Xenopus laevis oocytes expressing wild type EAAT1. It counts as cell-based.
From the text: as §1, §2, §3
(In general: Two-electrode voltage clamp holds a large cell at a set potential and records current.)

The target of a further assay is T3, EAAT1 T130A (Homo sapiens, UniProt P43003, T130A).
T3 construct: expressed in transfected cells; host or cells: Xenopus laevis oocytes injected with cRNA
T3 sequence (P43003 whole entry T130A): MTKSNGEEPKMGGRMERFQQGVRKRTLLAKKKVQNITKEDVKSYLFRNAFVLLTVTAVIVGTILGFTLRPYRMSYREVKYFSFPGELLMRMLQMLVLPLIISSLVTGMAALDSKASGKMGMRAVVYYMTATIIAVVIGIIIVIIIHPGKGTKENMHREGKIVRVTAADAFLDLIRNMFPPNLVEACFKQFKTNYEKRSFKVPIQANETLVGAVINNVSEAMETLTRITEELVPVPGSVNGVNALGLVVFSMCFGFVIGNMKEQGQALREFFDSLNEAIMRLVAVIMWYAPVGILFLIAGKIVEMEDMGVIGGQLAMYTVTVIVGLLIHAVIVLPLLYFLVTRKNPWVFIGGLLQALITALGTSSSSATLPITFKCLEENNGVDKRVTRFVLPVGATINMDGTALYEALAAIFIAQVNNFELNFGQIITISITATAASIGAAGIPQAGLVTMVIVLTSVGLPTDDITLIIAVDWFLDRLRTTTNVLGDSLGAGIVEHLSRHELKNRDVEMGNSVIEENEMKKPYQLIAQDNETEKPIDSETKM
In words: Two-electrode voltage clamp of Xenopus laevis oocytes expressing EAAT1 T130A. It counts as cell-based.
From the text: as §1, §2, §3

For assay [1], the target named is T4, GltPh T92A (Pyrococcus horikoshii, UniProt O59010, T92A).
T4 construct: histidine tag (cleaved yes); made in house
T4 sequence (O59010 whole entry T92A): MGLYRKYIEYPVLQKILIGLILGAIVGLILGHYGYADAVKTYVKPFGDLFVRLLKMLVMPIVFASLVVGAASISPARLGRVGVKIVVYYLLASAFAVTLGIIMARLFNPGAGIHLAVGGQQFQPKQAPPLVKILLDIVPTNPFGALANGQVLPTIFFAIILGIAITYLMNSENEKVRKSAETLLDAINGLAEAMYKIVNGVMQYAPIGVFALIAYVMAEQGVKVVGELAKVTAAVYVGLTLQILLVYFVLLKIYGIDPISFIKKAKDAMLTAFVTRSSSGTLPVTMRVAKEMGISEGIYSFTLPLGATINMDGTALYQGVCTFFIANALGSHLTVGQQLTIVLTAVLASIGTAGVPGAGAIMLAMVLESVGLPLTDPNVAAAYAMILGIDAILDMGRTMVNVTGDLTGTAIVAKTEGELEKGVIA
In words: Binding free energy of Na^+ ions by thermodynamic integration (MD), GltPh T92A. Conditions: GltPh T92A versus GltPh; from TI calculations. As to the method: (§4) The simulation systems are prepared using the software VMD [28]. The crystal structure of the GltPh trimer is embedded in a 1-palmitoyl-2-oleoyl-phosphatidylethanolamine (POPE) phospholipid bilayer and solvated in a box of water molecules with physiological concentration of NaCl. The final system consists of the trimer, 239 lipid molecules, 15688 water molecules and 35 Na^+ and 35 Cl^− ions. GltPh has a net charge of +6e, so to keep the system neutral 6 Cl^− ions are added in the apo system (more Cl^− ions are added when the bound Na^+ ions are included to preserve neutrality). […]
(§5) The binding free energies of Na^+ ions are calculated using the expression, ΔGb = ΔGint+ΔGtr , where the first term gives the free energy difference for the interactions of the ion in the binding site and bulk (i.e. translocation energy) and the second term measures the free energy loss due to reduction in translational entropy upon binding. […] The interaction energy is calculated using both the free energy perturbation (FEP) and the thermodynamic integration (TI) methods, [35]. […] Otherwise the binding free energy of the ion is determined from the average of the forward and backward calculations. […]

A further assay concerns GltPh. Set-up: method as in PMID 17230192, PMID 19380583. Conditions: initial functional studies of GltPh; ref [9], [11]; cited from earlier work.
Another assay addresses T5, wild type GltPh (Pyrococcus horikoshii, UniProt O59010).
T5 construct: histidine tag (cleaved yes); made in house
T5 sequence (O59010 1-425): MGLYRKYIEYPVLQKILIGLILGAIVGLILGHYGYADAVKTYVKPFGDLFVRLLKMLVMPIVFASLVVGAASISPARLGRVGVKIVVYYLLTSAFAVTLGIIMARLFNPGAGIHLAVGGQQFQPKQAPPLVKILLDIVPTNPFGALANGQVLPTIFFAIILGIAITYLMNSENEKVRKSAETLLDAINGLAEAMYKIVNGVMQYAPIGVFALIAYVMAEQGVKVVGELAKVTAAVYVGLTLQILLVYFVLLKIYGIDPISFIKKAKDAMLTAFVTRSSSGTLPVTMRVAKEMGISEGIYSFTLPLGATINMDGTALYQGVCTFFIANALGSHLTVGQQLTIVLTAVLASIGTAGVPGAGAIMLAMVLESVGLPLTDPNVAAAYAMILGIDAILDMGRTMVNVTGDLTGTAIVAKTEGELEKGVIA
Briefly: ^3H-L-aspartate uptake in proteoliposomes, wild type GltPh. It counts as biochemical. How it is done: (§6) Pure protein was reconstituted into liposomes using a method modified from Gaillard et al., 1996 [37]. Escherichia coli polar lipids and 1-palmitoyl-2-oleoyl-sn-glycero-3-phosphocholine (Avanti Polar Lipids), at a ratio of 3∶1, were mixed, dried under nitrogen, and resuspended in internal buffer (100 mM KCl, 20 mM HEPES pH 7.5 or the appropriate internal buffer as indicated below). The lipid mixture was briefly sonicated using a cylindrical sonicator (Labatory Supplies Co.) and the lipid suspension was frozen in liquid nitrogen and thawed at 45°C several times. Liposomes were formed by extrusion through 400 nm polycarbonate membranes (Avanti Polar Lipids) and were treated with Triton X-100 at a 0.5∶1 (w/w) detergent to lipid ratio prior to the addition of protein at 0.25 µg protein/mg lipid. The protein/lipid mixture was left at room temperature for 30 minutes before detergent was removed using SM2 Biobeads (Biorad). The protein/lipid mixture was incubated, with gentle agitation, with three consecutive batches of the Biobeads (80 mg/ml). Proteoliposomes were concentrated by centrifugation at 150,000 g for 30 minutes in a Beckman Optima TLX centrifuge, resuspended at 100 mg lipid/mL and either used immediately or flash frozen in liquid nitrogen and stored at −80°C.
(§7) ^3H-L-aspartate transport by wild type GltPh and mutant GltPh transporters was assayed using a protocol modified from Gaillard et al., 1996 [37]. Proteoliposomes were loaded with internal buffer (100 mM KCl, 20 mM HEPES pH 7.5) by several freeze/thaw cycles followed by extrusion as described above. The uptake reaction was initiated by diluting the proteoliposomes (100 mg lipid/mL) 133 fold into reaction buffer pre-warmed to 30°C. The reaction buffer contained: 100 mM NaCl, 20 mM HEPES pH 7.5, 1 µM valinomycin and the indicated concentrations of ^3H-L-aspartate. […] The filters were washed once with 2 mL of ice cold quench buffer and assayed for radioactivity using a Trilux beta counter (Perkin Elmer). The Na^+ dependence of ^3H-L-aspartate transport was measured by varying extraliposomal Na^+ from 0.1 to 300 mM Na^+. […] Background levels of uptake were measured by diluting proteoliposomes into internal buffer (100 mM KCl, 20 mM HEPES pH 7.5) containing 1 µM valinomycin and the indicated concentrations of ^3H-L-aspartate.
(§8) Substrate responses were fitted by least squares as a function of substrate concentration to I/Imax = [S]/([S]+K 0.5), where I is the current, Imax is the maximal current, K 0.5 is the concentration of substrate that generates half-maximal response, and [S] is the substrate concentration. […] For ^3H-L-aspartate uptake by GltPh, initial rates were calculated from the linear portion of the curve and all data represent the mean ± s.e.m. of at least 3 experiments.

Assay [2] deals with T6, GltPh S93A (Pyrococcus horikoshii, UniProt O59010, S93A).
T6 construct: histidine tag (cleaved yes); made in house
T6 sequence (O59010 whole entry S93A): as the sequence (O59010 whole entry T92A) above, with A92T, S93A counted along it
Briefly: ^3H-L-aspartate uptake in proteoliposomes, GltPh S93A. It counts as biochemical. As to the method: as §6, §7, §8

Assay [3] has as its target T4, GltPh T92A. In words: ^3H-L-aspartate uptake in proteoliposomes, GltPh T92A. It counts as biochemical. How it is done:
as §6, §7, §8

In assay [4] the target is T6, GltPh S93A. Briefly: Binding free energy of Na^+ ions by thermodynamic integration (MD), GltPh S93A. Particulars: GltPh S93A versus GltPh; from TI calculations. As to the method: as §4, §5
For a further assay, the target named is T7, GltPh D312A (Pyrococcus horikoshii, UniProt O59010, D312A).
T7 construct: histidine tag (cleaved yes); made in house
T7 sequence (O59010 whole entry D312A): as the sequence (O59010 whole entry T92A) above, with A92T, D312A counted along it
In words: ^3H-L-aspartate uptake in proteoliposomes, GltPh D312A. It counts as biochemical. Particulars: 100 nM ^3H-L-aspartate, 100 mM NaCl. How it is done: (§9) Pure protein was reconstituted into liposomes using a method modified from Gaillard et al., 1996 [37]. Escherichia coli polar lipids and 1-palmitoyl-2-oleoyl-sn-glycero-3-phosphocholine (Avanti Polar Lipids), at a ratio of 3∶1, were mixed, dried under nitrogen, and resuspended in internal buffer (100 mM KCl, 20 mM HEPES pH 7.5 or the appropriate internal buffer as indicated below). The lipid mixture was briefly sonicated using a cylindrical sonicator (Labatory Supplies Co.) and the lipid suspension was frozen in liquid nitrogen and thawed at 45°C several times. […]
(§10) ^3H-L-aspartate transport by wild type GltPh and mutant GltPh transporters was assayed using a protocol modified from Gaillard et al., 1996 [37]. […] The filters were washed once with 2 mL of ice cold quench buffer and assayed for radioactivity using a Trilux beta counter (Perkin Elmer). The Na^+ dependence of ^3H-L-aspartate transport was measured by varying extraliposomal Na^+ from 0.1 to 300 mM Na^+. […] Background levels of uptake were measured by diluting proteoliposomes into internal buffer (100 mM KCl, 20 mM HEPES pH 7.5) containing 1 µM valinomycin and the indicated concentrations of ^3H-L-aspartate. […]

For another assay, the target named is T8, GltPh N310A (Pyrococcus horikoshii, UniProt O59010, N310A).
T8 construct: histidine tag (cleaved yes); made in house
T8 sequence (O59010 whole entry N310A): as the sequence (O59010 whole entry T92A) above, with A92T, N310A counted along it
In words: ^3H-L-aspartate uptake in proteoliposomes, GltPh N310A. It counts as biochemical. Particulars: 100 nM ^3H-L-aspartate, 100 mM NaCl. As to the method: as §9, §10

Setting [5] is: 100 µM L-glutamate, oocytes clamped at −60 mV.
[6] abbreviates: 100 nM ^3H-L-aspartate, Na^+ 0.1 to 300 mM.
Where [7] appears, read: 100 mM Na^+, saturating substrate concentrations.
The mark [8] stands for this setting: ^3H-L-aspartate concentration-dependent transport, 100 mM NaCl.

T1 sequence (P43003 whole entry T131A): as the sequence (P43003 whole entry T130A) above, with A130T, T131A counted along it
T2 sequence (P43003 whole entry): as the sequence (P43003 whole entry T130A) above, with A130T counted along it

On to `N[C@@H](CCC(=O)O)C(=O)O` [L-glutamate], for which the figures for the “current elicited by L-glutamate” value at EAAT1 T131A (setting [5]), at EAAT1 (setting [5]) and on EAAT1 T130A (setting [5]) were 25±2 nA, 395±20 nA and 21±2 nA, respectively. The “K 0.5 for L-glutamate transport” value turned out to be 124 ± 11 µM at EAAT1 T131A (oocytes clamped at −60 mV), 15 ± 1 µM on EAAT1 (oocytes clamped at −60 mV) and 87 ± 3 µM on EAAT1 T130A (oocytes clamped at −60 mV).
Turning to `[Na+]` [Na^+], the “reduction of the binding free energy of Na3 by the mutation” value on GltPh T92A [1] was 7.5 kcal/mol; on GltPh S93A [4] it was 5.9 kcal/mol. For the same molecule, in the assay with GltPh, the “Hill coefficient (Na^+ ions co-transported with substrate)” value is above 2. Moreover, the “Na^+ dependence of L-glutamate transport: saturation at highest Na^+ concentration” value is “not saturating” on EAAT1 T131A (1 mM L-glutamate, 150 mM Na^+) and “not saturating” on EAAT1 T130A (1 mM L-glutamate, 150 mM Na^+). Moreover, the “Hill coefficient of Na^+ dependence of aspartate transport” value is recorded as 2.3±0.5 on wild type GltPh (100 nM ^3H-L-aspartate), 1.9±0.2 on GltPh S93A [2] (500 nM ^3H-L-aspartate) and 2.1±0.2 on GltPh T92A [3] (100 nM ^3H-L-aspartate). The “K 0.5 for Na^+ dependence of aspartate transport” value at wild type GltPh (setting [6]) worked out at 3.9 ± 0.4 mM; on GltPh S93A [2] (500 nM ^3H-L-aspartate, Na^+ 0.1 to 300 mM), 44 ± 2 mM; at GltPh T92A [3] (setting [6]), 19 ± 1 mM. Further, the “Hill coefficient of Na^+ dependence of L-glutamate transport” value at EAAT1 (300 µM L-glutamate) was 2.8±0.4. The “K 0.5 for Na^+ dependence of L-glutamate transport” value on EAAT1 (300 µM L-glutamate, Na^+ 1 to 150 mM) stood at 28 ± 4 mM.
`N[C@@H](CC(=O)O)C(=O)O` [aspartate]: the “^3H-L-aspartate uptake versus background” value on GltPh D312A and at GltPh N310A was “did not exhibit ^3H-L-aspartate uptake over background levels” in each case. The “maximal velocity of ^3H-L-aspartate transport” value is reported as 7.5±0.5 nmol/mg protein/min at wild type GltPh (setting [7]), 58±3 nmol/mg protein/min on GltPh S93A [2] (setting [7]) and 42±1 nmol/mg protein/min on GltPh T92A [3] (setting [7]). Besides, the results for the “K 0.5 for aspartate transport” value at wild type GltPh (setting [8]), at GltPh S93A [2] (setting [8]) and on GltPh T92A [3] (setting [8]) were 100 ± 10 nM, 370 ± 60 nM and 61 ± 10 nM, respectively.
